Measurements published in ChEMBL document CHEMBL4184165, “Unique arginine array improves cytosolic localization of hydrocarbon-stapled peptides” (Bioorg Med Chem, 2018).
Where a SMILES comes first, the peptide text is derived from it. Bridges are numbered along the chain shown (N, C = ends). [ ]: non-standard residue; d: D form. The star is where a group is joined. X1 = CCN(CC)c1ccc2c(-c3ccc(S(=O)(=O)*)cc3S(=O)(=O)[O-])c3ccc(=[N+](CC)CC)cc-3oc2c1; R8 = C=CCCCCCC[C@@](C)(N)C(=O)O; S5 = C=CCCC[C@](C)(N)C(=O)O; βAla = NCCC(=O)O

Columns and labels:
[1] = Drug uptake in cytosol of human HeLa cells at 500 nM after 30 mins by FCS analysis; type: ADME, subcellular; conditions: 0.5 h, 0.5 µM
[2] = Drug uptake in cytosol of human HeLa cells at 500 nM after 30 mins by FCS analysis relative to control; type: ADME, subcellular; conditions: 0.5 h, 0.5 µM
SJSA-1 = experiment: Cytotoxicity in human SJSA1 cells over expressing human DM2 after 24 hrs by CellTiter-Glo assay; type: functional, cell-based; conditions: SJSA-1, 24 h

Structure (SMILES)	Drug uptake [1] [nM]	Drug uptake [2] [%]	EC50 (SJSA-1) [µM]
CCN(CC)c1ccc2c(-c3ccc(S(=O)(=O)NCCC(=O)N[C@@H](CC(C)C)C(=O)N[C@@H](CO)C(=O)N[C@@H](CCC(N)=O)C(=O)N[C@@H](CCC(=O)O)C(=O)N[C@H](C(=O)N[C@@H](Cc4ccccc4)C(=O)N[C@]4(C)CCCCCC/C=C/CCC[C@@](C)(C(=O)N[C@@H](CCC(=O)O)C(=O)N[C@@H](CC(N)=O)C(N)=O)NC(=O)[C@H](CC(C)C)NC(=O)[C@H](CC(C)C)NC(=O)[C@H](CCCCN)NC(=O)[C@H](Cc5c[nH]c6ccccc56)NC(=O)[C@H](CC(C)C)NC(=O)[C@H](CC(=O)O)NC4=O)[C@@H](C)O)cc3S(=O)(=O)[O-])c3ccc(=[N+](CC)CC)cc-3oc2c1	62	12.4	
CC(=O)N[C@@H](CC(C)C)C(=O)N[C@@H](CCCNC(=N)N)C(=O)N[C@@H](CCCNC(=N)N)C(=O)N[C@@H](CCC(=O)O)C(=O)N[C@H](C(=O)N[C@@H](Cc1ccccc1)C(=O)N[C@]1(C)CCCCCC/C=C/CCC[C@@](C)(C(=O)N[C@@H](CCCNC(=N)N)C(=O)N[C@@H](CCCNC(=N)N)C(N)=O)NC(=O)[C@H](CC(C)C)NC(=O)[C@H](CCCNC(=N)N)NC(=O)[C@H](CCCCN)NC(=O)[C@H](Cc2c[nH]c3ccccc23)NC(=O)[C@H](CC(C)C)NC(=O)[C@H](CC(=O)O)NC1=O)[C@@H](C)O (Ac-LRRETF[R8]DLWKRL[S5]RR-NH2; staple (E) 7-14)			3.2
CC(=O)N[C@@H](CC(C)C)C(=O)N[C@@H](CCCNC(=N)N)C(=O)N[C@@H](CCCNC(=N)N)C(=O)N[C@@H](CCC(=O)O)C(=O)N[C@H](C(=O)N[C@@H](Cc1ccccc1)C(=O)N[C@]1(C)CCCCCC/C=C/CCC[C@@](C)(C(=O)N[C@@H](CCCNC(=N)N)C(=O)N[C@@H](CC(N)=O)C(N)=O)NC(=O)[C@H](CC(C)C)NC(=O)[C@H](CCCNC(=N)N)NC(=O)[C@H](CCCCN)NC(=O)[C@H](Cc2c[nH]c3ccccc23)NC(=O)[C@H](CCCNC(=N)N)NC(=O)[C@H](CC(=O)O)NC1=O)[C@@H](C)O (Ac-LRRETF[R8]DRWKRL[S5]RN-NH2; staple (E) 7-14)			7.7
CC(=O)N[C@@H](CC(C)C)C(=O)N[C@@H](CO)C(=O)N[C@@H](CCC(N)=O)C(=O)N[C@@H](CCC(=O)O)C(=O)N[C@H](C(=O)N[C@@H](C)C(=O)N[C@]1(C)CCCCCC/C=C/CCC[C@@](C)(C(=O)N[C@@H](CCCNC(=N)N)C(=O)N[C@@H](CCCNC(=N)N)C(N)=O)NC(=O)[C@H](CC(C)C)NC(=O)[C@H](CCCNC(=N)N)NC(=O)[C@H](CCCNC(=N)N)NC(=O)[C@H](Cc2c[nH]c3ccccc23)NC(=O)[C@H](CC(C)C)NC(=O)[C@H](CCCNC(=N)N)NC1=O)[C@@H](C)O (Ac-LSQETA[R8]RLWRRL[S5]RR-NH2; staple (E) 7-14)			4.8
CC(=O)N[C@@H](CC(C)C)C(=O)N[C@@H](CO)C(=O)N[C@@H](CCC(N)=O)C(=O)N[C@@H](CCC(=O)O)C(=O)N[C@H](C(=O)N[C@@H](Cc1ccccc1)C(=O)N[C@]1(C)CCCCCC/C=C/CCC[C@@](C)(C(=O)N[C@@H](CCCNC(=N)N)C(=O)N[C@@H](CCCNC(=N)N)C(N)=O)NC(=O)[C@H](CC(C)C)NC(=O)[C@H](CCCNC(=N)N)NC(=O)[C@H](CCCNC(=N)N)NC(=O)[C@H](Cc2c[nH]c3ccccc23)NC(=O)[C@H](CC(C)C)NC(=O)[C@H](CCCNC(=N)N)NC1=O)[C@@H](C)O (Ac-LSQETF[R8]RLWRRL[S5]RR-NH2; staple (E) 7-14)			1.9
CC(=O)N[C@@H](CCC(N)=O)C(=O)N[C@@H](CO)C(=O)N[C@@H](CCC(N)=O)C(=O)N[C@@H](CCC(N)=O)C(=O)N[C@H](C(=O)N[C@@H](Cc1ccccc1)C(=O)N[C@]1(C)CCCCCC/C=C/CCC[C@@](C)(C(=O)N[C@@H](CCC(N)=O)C(=O)N[C@@H](CC(N)=O)C(N)=O)NC(=O)[C@H](CC(C)C)NC(=O)[C@H](CC(C)C)NC(=O)[C@H](CCCCN)NC(=O)[C@H](Cc2c[nH]c3ccccc23)NC(=O)[C@H](CC(C)C)NC(=O)[C@H](CC(N)=O)NC1=O)[C@@H](C)O (Ac-QSQQTF[R8]NLWKLL[S5]QN-NH2; staple (E) 7-14)			10.2
CC(=O)N[C@@H](CCCNC(=N)N)C(=O)N[C@@H](CCCNC(=N)N)C(=O)N[C@@H](CCCNC(=N)N)C(=O)N[C@@H](CCCNC(=N)N)C(=O)N[C@@H](CCCNC(=N)N)C(=O)N[C@@H](Cc1ccccc1)C(=O)N[C@]1(C)CCCCCC/C=C/CCC[C@@](C)(C(=O)N[C@@H](CCC(=O)O)C(=O)N[C@@H](CC(N)=O)C(N)=O)NC(=O)[C@H](CC(C)C)NC(=O)[C@H](CC(C)C)NC(=O)[C@H](CCCCN)NC(=O)[C@H](Cc2c[nH]c3ccccc23)NC(=O)[C@H](CC(C)C)NC(=O)[C@H](CC(=O)O)NC1=O (Ac-RRRRRF[R8]DLWKLL[S5]EN-NH2; staple (E) 7-14)			1.6
CC(=O)N[C@@H](CCCNC(=N)N)C(=O)N[C@@H](CO)C(=O)N[C@@H](CCC(N)=O)C(=O)N[C@@H](CCC(=O)O)C(=O)N[C@@H](CCCNC(=N)N)C(=O)N[C@@H](Cc1ccccc1)C(=O)N[C@]1(C)CCCCCC/C=C/CCC[C@@](C)(C(=O)N[C@@H](CCCNC(=N)N)C(=O)N[C@@H](CCCNC(=N)N)C(N)=O)NC(=O)[C@H](CC(C)C)NC(=O)[C@H](CCCNC(=N)N)NC(=O)[C@H](CCCCN)NC(=O)[C@H](Cc2c[nH]c3ccccc23)NC(=O)[C@H](CC(C)C)NC(=O)[C@H](CC(=O)O)NC1=O (Ac-RSQERF[R8]DLWKRL[S5]RR-NH2; staple (E) 7-14)			7.7
CC(=O)N[C@@H](CCCNC(=N)N)C(=O)N[C@@H](CO)C(=O)N[C@@H](CCC(N)=O)C(=O)N[C@@H](CCC(=O)O)C(=O)N[C@@H](CCCNC(=N)N)C(=O)N[C@@H](Cc1ccccc1)C(=O)N[C@]1(C)CCCCCC/C=C/CCC[C@@](C)(C(=O)N[C@@H](CCC(=O)O)C(=O)N[C@@H](CC(N)=O)C(N)=O)NC(=O)[C@H](CC(C)C)NC(=O)[C@H](CCCNC(=N)N)NC(=O)[C@H](CCCNC(=N)N)NC(=O)[C@H](Cc2c[nH]c3ccccc23)NC(=O)[C@H](CC(C)C)NC(=O)[C@H](CCCNC(=N)N)NC1=O (Ac-RSQERF[R8]RLWRRL[S5]EN-NH2; staple (E) 7-14)			7.2
CC(=O)N[C@@H](CCCNC(=N)N)C(=O)N[C@@H](CO)C(=O)N[C@@H](CCC(N)=O)C(=O)N[C@@H](CCCNC(=N)N)C(=O)N[C@@H](CCCNC(=N)N)C(=O)N[C@@H](Cc1ccccc1)C(=O)N[C@]1(C)CCCCCC/C=C/CCC[C@@](C)(C(=O)N[C@@H](CCC(=O)O)C(=O)N[C@@H](CC(N)=O)C(N)=O)NC(=O)[C@H](CC(C)C)NC(=O)[C@H](CC(C)C)NC(=O)[C@H](CCCNC(=N)N)NC(=O)[C@H](Cc2c[nH]c3ccccc23)NC(=O)[C@H](CC(=O)O)NC(=O)[C@H](CCCNC(=N)N)NC1=O (Ac-RSQRRF[R8]RDWRLL[S5]EN-NH2; staple (E) 7-14)			1.9
CCN(CC)c1ccc2c(-c3ccc(S(=O)(=O)NCCC(=O)N[C@@H](CC(C)C)C(=O)N[C@@H](CO)C(=O)N[C@@H](CCC(N)=O)C(=O)N[C@@H](CCC(=O)O)C(=O)N[C@H](C(=O)N[C@@H](Cc4ccccc4)C(=O)N[C@]4(C)CCCCCC/C=C/CCC[C@@](C)(C(=O)N[C@@H](CCCNC(=N)N)C(=O)N[C@@H](CCCNC(=N)N)C(N)=O)NC(=O)[C@H](CC(C)C)NC(=O)[C@H](CCCNC(=N)N)NC(=O)[C@H](CCCNC(=N)N)NC(=O)[C@H](Cc5c[nH]c6ccccc56)NC(=O)[C@H](CC(C)C)NC(=O)[C@H](CCCNC(=N)N)NC4=O)[C@@H](C)O)cc3S(=O)(=O)[O-])c3ccc(=[N+](CC)CC)cc-3oc2c1 ({X1-βAla}-LSQETF[R8]RLWRRL[S5]RR-NH2; staple (E) 7-14)	284		
CCN(CC)c1ccc2c(-c3ccc(S(=O)(=O)NCCC(=O)N[C@@H](CCC(N)=O)C(=O)N[C@@H](CO)C(=O)N[C@@H](CCC(N)=O)C(=O)N[C@@H](CCC(N)=O)C(=O)N[C@H](C(=O)N[C@@H](Cc4ccccc4)C(=O)N[C@]4(C)CCCCCC/C=C/CCC[C@@](C)(C(=O)N[C@@H](CCC(N)=O)C(=O)N[C@@H](CC(N)=O)C(N)=O)NC(=O)[C@H](CC(C)C)NC(=O)[C@H](CC(C)C)NC(=O)[C@H](CCCCN)NC(=O)[C@H](Cc5c[nH]c6ccccc56)NC(=O)[C@H](CC(C)C)NC(=O)[C@H](CC(N)=O)NC4=O)[C@@H](C)O)cc3S(=O)(=O)[O-])c3ccc(=[N+](CC)CC)cc-3oc2c1 ({X1-βAla}-QSQQTF[R8]NLWKLL[S5]QN-NH2; staple (E) 7-14)	256 to 260	51.9	
CCN(CC)c1ccc2c(-c3ccc(S(=O)(=O)NCCC(=O)N[C@@H](CCCNC(=N)N)C(=O)N[C@@H](CO)C(=O)N[C@@H](CCC(N)=O)C(=O)N[C@@H](CCC(=O)O)C(=O)N[C@@H](CCCNC(=N)N)C(=O)N[C@@H](Cc4ccccc4)C(=O)N[C@]4(C)CCCCCC/C=C/CCC[C@@](C)(C(=O)N[C@@H](CCC(=O)O)C(=O)N[C@@H](CC(N)=O)C(N)=O)NC(=O)[C@H](CC(C)C)NC(=O)[C@H](CCCNC(=N)N)NC(=O)[C@H](CCCNC(=N)N)NC(=O)[C@H](Cc5c[nH]c6ccccc56)NC(=O)[C@H](CC(C)C)NC(=O)[C@H](CCCNC(=N)N)NC4=O)cc3S(=O)(=O)[O-])c3ccc(=[N+](CC)CC)cc-3oc2c1 ({X1-βAla}-RSQERF[R8]RLWRRL[S5]EN-NH2; staple (E) 7-14)	69	13.8	
COc1ccc(C2=N[C@@H](c3ccc(Cl)cc3)[C@@H](c3ccc(Cl)cc3)N2C(=O)N2CCNC(=O)C2)c(OC(C)C)c1 [NUTLIN-3]			22.8
